Broadly, the surface tension liquid-gas is the work needed to enlarge the surface of a liquid by unit area. For orientation: mass density means mass per unit of volume. What is called refractive index is the speed of light in vacuum divided by its phase velocity in the sample.

Molecules are shown by their SMILES. ± gives the expanded uncertainty stated by the source.

The conditions of data set [1]: for surface tension liquid-gas: Drop volume; for mass density: 101.33 kPa, Liquid.
A short description of data set [2]: refractive index (Na D-line) (dimensionless). Conditions: 101.33 kPa, Liquid, Standard Abbe refractometry.

For the compound `C1COCCO1` [1,4-dioxane], the surface tension liquid-gas in data set [1] (283.15 K) worked out at 35.09 ± 0.39 mN/m; in data set [1] (298.15 K), 33.23 ± 0.37 mN/m; in data set [1] (313.15 K), 31.23 ± 0.35 mN/m. The mass density in data set [1] (283.15 K) worked out at 1045.16 ± 0.14 kg/m3; in data set [1] (298.15 K) it was 1027.85 ± 0.12 kg/m3; in data set [1] (313.15 K), 1010.99 ± 0.11 kg/m3. Further, the refractive index in data set [2] (283.15 K) is 1.42721 ± 0.00031; in data set [2] (298.15 K) it was 1.41992 ± 0.00031; in data set [2] (313.15 K) it was 1.41256 ± 0.00031.
With `C1CCCCC1` [cyclohexane], the surface tension liquid-gas in data set [1] (283.15 K) is 26.28 ± 0.3 mN/m; in data set [1] (298.15 K), 24.73 ± 0.28 mN/m; in data set [1] (313.15 K), 22.93 ± 0.26 mN/m. In addition, the mass density in data set [1] (283.15 K) came out at 787.97 ± 0.3 kg/m3; in data set [1] (298.15 K), 773.65 ± 0.32 kg/m3; in data set [1] (313.15 K) it was 759.59 ± 0.33 kg/m3. Moreover, the refractive index in data set [2] (283.15 K) was determined as 1.43182 ± 0.00031; in data set [2] (298.15 K), 1.42348 ± 0.00031; in data set [2] (313.15 K), 1.41498 ± 0.00031.
In the case of `C1CCCC1` [cyclopentane], the surface tension liquid-gas is given as 24.14 ± 0.3 mN/m in data set [1] (283.15 K), 22.06 ± 0.28 mN/m in data set [1] (298.15 K) and 19.76 ± 0.25 mN/m in data set [1] (313.15 K). Moreover, the mass density is 754.85 ± 0.77 kg/m3 in data set [1] (283.15 K), 739.74 ± 0.79 kg/m3 in data set [1] (298.15 K) and 724.71 ± 0.81 kg/m3 in data set [1] (313.15 K). Further, the values for the refractive index in data set [2] (283.15 K), in data set [2] (298.15 K) and in data set [2] (313.15 K) were 1.41197 ± 0.00037, 1.40335 ± 0.00037 and 1.39451 ± 0.00037, respectively.

The values are drawn from the NIST ThermoML archive (doi:10.1016/j.jct.2005.09.004).
